Results published in patent US20230329989A1, “A PERSONAL CARE COMPOSITION COMPRISING AMINO ACIDS” (priority 2020, published 2023).

Assays:
S. epidermidis = experiment: Growth of S. epidermidis in the presence of a single amino acid as supplement; assay type: cell-based; settings: 0.1% individual amino acid in 10% TSB + 1% glucose, 37° C., 24 hrs, absorbance at 600 nm normalized to control without amino acid; for activity at 0.1 %: Staphylococcus epidermidis
Experimental: The growth of the above commensal bacteria due to the presence of each of the twenty different amino acids separately was studied. All 20 L-amino acids were procured from Hi media. The stocks were prepared in distilled water and filter sterilized by passing it through 0.22 μm filter. A 100 mM sodium phosphate buffer pH 7.4 was prepared and filter sterilized. Reaction was set up in a 96 well flat bottom transparent plate. […] The final concentration of individual amino acid was 0.1%. Each reaction was set up in triplicates. The plate was incubated at 37° C. under stationary conditions for 24 hrs. After 24 hrs, the absorbance of the plate was measured at 600 nm using TECAN plate reader. The absorbance values were then normalized to control (S. epidermidis grown in 10% TSB+1% glucose).

S. aureus = experiment: Growth kinetics of S. aureus with individual amino acids; assay type: cell-based; settings: 0.1 wt % individual amino acid; for inhibition of S. aureus (in words): among the seven selected; for Absorbance at 600 nm: S. aureus, growth till 20 hours
Experimental: In order to identify a set of amino acids which are major contributors to the higher growth rate of S. aureus in Mix 7, growth kinetics experiments were carried out with all seven individual amino acids. […] The experiment was carried out for growth till 20 hours. They were carried out at 0.1 wt % concentration of the individual amino acid.

SMILES	activity at 0.1 % (S. epidermidis)	inhibition of S. aureus (in words) (S. aureus)	Absorbance at 600 nm (S. aureus)	% growth (S. epidermidis)
CC(N)C(=O)O (stereo not drawn) [Example 1A, Alanine]	139%	maximum inhibition	0.447	
NC(=O)C[C@H](N)C(=O)O [Example 1C, Asparagine]	113%			
NC(CC(=O)O)C(=O)O (stereo not drawn) [Example 1D, Aspartic acid]	121%	maximum inhibition	0.540	
NC(CS)C(=O)O (stereo not drawn) [Example 1E, Cysteine]	121%	maximum inhibition	0.476	
NCC(=O)O [Example 1F, Glycine]			0.863	135%
NC(=O)CC[C@H](N)C(=O)O [Example 1H, Glutamine]	109%			
CC[C@H](C)[C@H](N)C(=O)O [Example 1J, Isoleucine]	99%			
CC(C)C[C@H](N)C(=O)O [Example 1K, Leucine]	96%			
CSCC[C@H](N)C(=O)O [Example 1M, Methionine]	87%			
O=C(O)[C@@H]1CCCN1 [Example 1O, Proline]	93%			
N[C@@H](CO)C(=O)O [Example 1P, Serine]	134%	maximum inhibition	0.504	
N[C@@H](Cc1ccc(O)cc1)C(=O)O [Example 1Q, Tyrosine]	120%	maximum inhibition	0.478	
C[C@@H](O)[C@H](N)C(=O)O [Example 1R, Threonine]	126%		0.697	
CC(C)[C@H](N)C(=O)O [Example 1T, Valine]	96%			
N[C@@H](Cc1c[nH]cn1)C(=O)O [Example 11, Histidine]	96%			
